Source: patent publication US20220281848A1, “PYRAZOLE-SUBSTITUTED PYRROLIDINONES AS HERBICIDES” (FMC Corporation, priority 2019, published 2022)

System: plants
Experiment: Test D post-emergence, other plants of Tables D2 and D4
Assay type: in vivo
Conditions: for SINAR damage rating (100=total damage to plant; 0=no damage to plant) / STEME damage rating (100=total damage to plant; 0=no damage to plant) / VERPE damage rating (100=total damage to plant; 0=no damage to plant): "Cereals" Postemergent, evaluated after 15 d; for damage to plant (100=total damage to plant; 0=no damage to plant), ABUTH / damage to plant (100=total damage to plant; 0=no damage to plant), AMARE / damage to plant (100=total damage to plant; 0=no damage to plant), BIDPI / damage to plant (100=total damage to plant; 0=no damage to plant), BRAPL / damage to plant (100=total damage to plant; 0=no damage to plant), CYPES / damage to plant (100=total damage to plant; 0=no damage to plant), DIGSA / damage to plant (100=total damage to plant; 0=no damage to plant), ECHCG / damage to plant (100=total damage to plant; 0=no damage to plant), ELEIN / damage to plant (100=total damage to plant; 0=no damage to plant), EPHHL / damage to plant (100=total damage to plant; 0=no damage to plant), GLXMA / damage to plant (100=total damage to plant; 0=no damage to plant), IPOHE / damage to plant (100=total damage to plant; 0=no damage to plant), ORYSA / damage to plant (100=total damage to plant; 0=no damage to plant), PANMI / damage to plant (100=total damage to plant; 0=no damage to plant), SETFA / damage to plant (100=total damage to plant; 0=no damage to plant), SORVU: post-emergence
Method in brief: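 Seeds treated with herbicide safener; sown in soil; glasshouse, 16 h light, 65% humidity. Sprayed day 1 (pre) or ~day 12 (post). Spray in 0.2% v/v adjuvant. Scored 0–100 damage: 20 DAA pre, 15 d post.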

CN1CC(c2cc(C(F)(F)F)n(C)n2)C(C(=O)Nc2cccc(F)n2)C1=O (racemic) [Compound 24]
20: VERPE damage rating (100=total damage to plant; 0=no damage to plant) (Rates 500) | damage to plant (100=total damage to plant; 0=no damage to plant), EPHHL (rate 500, evaluated after 15 d)
40: damage to plant (100=total damage to plant; 0=no damage to plant), BRAPL (rate 250, evaluated after 15 d)
0: SINAR damage rating (100=total damage to plant; 0=no damage to plant) (Rates 250) | SINAR damage rating (100=total damage to plant; 0=no damage to plant) (Rates 500) | STEME damage rating (100=total damage to plant; 0=no damage to plant) (Rates 130) | STEME damage rating (100=total damage to plant; 0=no damage to plant) (Rates 250) | STEME damage rating (100=total damage to plant; 0=no damage to plant) (Rates 500) | VERPE damage rating (100=total damage to plant; 0=no damage to plant) (Rates 130) | VERPE damage rating (100=total damage to plant; 0=no damage to plant) (Rates 250) | damage to plant (100=total damage to plant; 0=no damage to plant), ABUTH (rate 130, evaluated after 15 d) | damage to plant (100=total damage to plant; 0=no damage to plant), ABUTH (rate 250, evaluated after 15 d) | damage to plant (100=total damage to plant; 0=no damage to plant), AMARE (rate 130, evaluated after 15 d) | damage to plant (100=total damage to plant; 0=no damage to plant), AMARE (rate 250, evaluated after 15 d) | damage to plant (100=total damage to plant; 0=no damage to plant), AMARE (rate 500, evaluated after 15 d) | damage to plant (100=total damage to plant; 0=no damage to plant), BIDPI (rate 130, evaluated after 15 d) | damage to plant (100=total damage to plant; 0=no damage to plant), BIDPI (rate 250, evaluated after 15 d) | damage to plant (100=total damage to plant; 0=no damage to plant), BIDPI (rate 500, evaluated after 15 d) | damage to plant (100=total damage to plant; 0=no damage to plant), BRAPL (rate 130, evaluated after 15 d) | damage to plant (100=total damage to plant; 0=no damage to plant), CYPES (rate 130, evaluated after 15 d) | damage to plant (100=total damage to plant; 0=no damage to plant), CYPES (rate 250, evaluated after 15 d) | damage to plant (100=total damage to plant; 0=no damage to plant), DIGSA (rate 130, evaluated after 15 d) | damage to plant (100=total damage to plant; 0=no damage to plant), DIGSA (rate 250, evaluated after 15 d) | damage to plant (100=total damage to plant; 0=no damage to plant), DIGSA (rate 500, evaluated after 15 d) | damage to plant (100=total damage to plant; 0=no damage to plant), ECHCG (rate 130, evaluated after 15 d) | damage to plant (100=total damage to plant; 0=no damage to plant), ECHCG (rate 250, evaluated after 15 d) | damage to plant (100=total damage to plant; 0=no damage to plant), ECHCG (rate 500, evaluated after 15 d) | damage to plant (100=total damage to plant; 0=no damage to plant), ELEIN (rate 130, evaluated after 15 d) | damage to plant (100=total damage to plant; 0=no damage to plant), ELEIN (rate 250, evaluated after 15 d) | damage to plant (100=total damage to plant; 0=no damage to plant), ELEIN (rate 500, evaluated after 15 d) | damage to plant (100=total damage to plant; 0=no damage to plant), EPHHL (rate 130, evaluated after 15 d) | damage to plant (100=total damage to plant; 0=no damage to plant), EPHHL (rate 250, evaluated after 15 d) | damage to plant (100=total damage to plant; 0=no damage to plant), GLXMA (rate 130, evaluated after 15 d) | damage to plant (100=total damage to plant; 0=no damage to plant), GLXMA (rate 250, evaluated after 15 d) | damage to plant (100=total damage to plant; 0=no damage to plant), IPOHE (rate 130, evaluated after 15 d) | damage to plant (100=total damage to plant; 0=no damage to plant), IPOHE (rate 250, evaluated after 15 d) | damage to plant (100=total damage to plant; 0=no damage to plant), ORYSA (rate 130, evaluated after 15 d) | damage to plant (100=total damage to plant; 0=no damage to plant), ORYSA (rate 250, evaluated after 15 d) | damage to plant (100=total damage to plant; 0=no damage to plant), PANMI (rate 130, evaluated after 15 d) | damage to plant (100=total damage to plant; 0=no damage to plant), PANMI (rate 250, evaluated after 15 d) | damage to plant (100=total damage to plant; 0=no damage to plant), SETFA (rate 130, evaluated after 15 d) | damage to plant (100=total damage to plant; 0=no damage to plant), SETFA (rate 250, evaluated after 15 d) | damage to plant (100=total damage to plant; 0=no damage to plant), SORVU (rate 130, evaluated after 15 d) | damage to plant (100=total damage to plant; 0=no damage to plant), SORVU (rate 250, evaluated after 15 d) | damage to plant (100=total damage to plant; 0=no damage to plant), SORVU (rate 500, evaluated after 15 d)
50: damage to plant (100=total damage to plant; 0=no damage to plant), BRAPL (rate 500, evaluated after 15 d)
10: damage to plant (100=total damage to plant; 0=no damage to plant), ABUTH (rate 500, evaluated after 15 d) | damage to plant (100=total damage to plant; 0=no damage to plant), CYPES (rate 500, evaluated after 15 d) | damage to plant (100=total damage to plant; 0=no damage to plant), GLXMA (rate 500, evaluated after 15 d) | damage to plant (100=total damage to plant; 0=no damage to plant), IPOHE (rate 500, evaluated after 15 d) | damage to plant (100=total damage to plant; 0=no damage to plant), ORYSA (rate 500, evaluated after 15 d) | damage to plant (100=total damage to plant; 0=no damage to plant), PANMI (rate 500, evaluated after 15 d) | damage to plant (100=total damage to plant; 0=no damage to plant), SETFA (rate 500, evaluated after 15 d)
